Measured values published in patent publication US10568950B1, “Peptides, combination of peptides and scaffolds for use in immunotherapeutic treatment of various cancers” (Immatics Biotechnologies GmbH, priority 2015, dated 2020).

Test system: CD8+ T cells of healthy HLA-A*24+ donors
Assay: In vitro immunogenicity: priming of CD8+ T cells with aAPCs loaded with HLA-A*24/peptide complexes and anti-CD28, multimer staining
Type: cell-based, human
Conditions: for Wells positive [%]: in vitro immunogenicity, HLA-A*24 peptides of Table 12B; for wells: in vitro immunogenicity of HLA class I peptides, share of positive wells, peptides of Table 3 (HLA-A*24 binding)
Procedure: CD8+ T cells were primed using artificial APCs coated with anti-CD28 mAb and HLA-A*24 in complex with SEQ ID NO: 99 peptide (FIG. 5A, left panel), SEQ ID NO: 119 peptide (FIG. 5B, left panel), SEQ ID NO: 142 peptide (FIG. 5C, left panel) and SEQ ID NO: 174 peptide (FIG. 5D, left panel), respectively. After three cycles of stimulation, the detection of peptide-reactive cells was performed by 2D multimer staining with A*24/SEQ ID NO: 99 (A), A*24/SEQ ID NO: 119 (B), A*24/SEQ ID NO: 142 (C) or A*24/SEQ ID NO: 174 (D). Right panels (FIGS. 5A, 5B, 5C and 5D) show control staining of cells stimulated with irrelevant A*24/peptide complexes. Viable singlet cells were gated for CD8+ lymphocytes. Boolean gates helped excluding false-positive events detected with multimers specific for different peptides. Frequencies of specific multimer+ cells among CD8+ lymphocytes are indicated.
In order to obtain information regarding the immunogenicity of the TUMAPs of the present invention, the inventors performed investigations using an in vitro T-cell priming assay based on repeated stimulations of CD8+ T cells with artificial antigen presenting cells (aAPCs) loaded with peptide/MHC complexes and anti-CD28 antibody.
PBMCs and isolated CD8+ lymphocytes were incubated in T-cell medium (TCM) until use consisting of RPMI-Glutamax (Invitrogen, Karlsruhe, Germany) supplemented with 10% heat inactivated human AB serum (PAN-Biotech, Aidenbach, Germany), 100 U/ml Penicillin/100 μg/ml Streptomycin (Cambrex, Cologne, Germany), 1 mM sodium pyruvate (CC Pro, Oberdorla, Germany), 20 μg/ml Gentamycin (Cambrex). 2.5 ng/ml IL-7 (PromoCell, Heidelberg, Germany) and 10 U/ml IL-2 (Novartis Pharma, Nurnberg, Germany) were also added to the TCM at this step.
Generation of pMHC/anti-CD28 coated beads, T-cell stimulations and readout was performed in a highly defined in vitro system using four different pMHC molecules per stimulation condition and 8 different pMHC molecules per readout condition.
The purified co-stimulatory mouse IgG2a anti human CD28 Ab 9.3 (Jung et al., 1987) was chemically biotinylated using Sulfo-N-hydroxysuccinimidobiotin as recommended by the manufacturer (Perbio, Bonn, Germany). Beads used were 5.6 μm diameter streptavidin coated polystyrene particles (Bangs Laboratories, Illinois, USA).
800.000 beads/200 μl were coated in 96-well plates in the presence of 4×12.5 ng different biotin-pMHC, washed and 600 ng biotin anti-CD28 were added subsequently in a volume of 200 μl. Stimulations were initiated in 96-well plates by co-incubating […] CD8+ T cells with 2×10^5 washed coated beads in 200 μl TCM supplemented with 5 ng/ml IL-12 (PromoCell) for 3 days at 37° C. Half of the medium was then exchanged by fresh TCM supplemented with 80 U/ml IL-2 and incubating was continued for 4 days at 37° C. This stimulation cycle was performed for a total of three times. For the pMHC multimer readout using 8 different pMHC molecules per condition, a two-dimensional combinatorial coding approach was used as previously described (Andersen et al., 2012) with minor modifications encompassing coupling to 5 different fluorochromes. Finally, multimeric analyses were performed by staining the cells with Live/dead near IR dye (Invitrogen, Karlsruhe, Germany), CD8-FITC antibody clone SKI (BD, Heidelberg, Germany) and fluorescent pMHC multimers. For analysis, a BD LSRII SORP cytometer equipped with appropriate lasers and filters was used. Peptide specific cells were calculated as percentage of total CD8+ cells. Evaluation of multimeric analysis was done using the FlowJo software (Tree Star, Oreg., USA). In vitro priming of specific multimer+ CD8+ lymphocytes was detected by comparing to negative control stimulations.

Substance | Wells positive [%] | wells
174 (VYEKNGYIYF; listed as Homo sapiens) [compound 174] | ++++ (>= 70 % = ++++) | 
115 (RYLNKSFVL; listed as Homo sapiens) [compound 115] | + (<20% = +) | 
103 (NYIPVKNGKQF; listed as Homo sapiens) [compound 103] | + (<20% = +) | 
350 (KYGNFIDKL; listed as Homo sapiens) [compound 350] | +++ (50%-69% = +++) | 
110 (SYPKIIEEF; listed as Homo sapiens) [compound 110] | ++ (20%-49% = ++) | 
168 (RYLEAALRL; listed as Homo sapiens) [compound 168] | +++ (50%-69% = +++) | 
164 (HYVPATKVF; listed as Homo sapiens) [compound 164] | + (<20% = +) | 
167 (RYGFYYVEF; listed as Homo sapiens) [compound 167] | ++++ (>= 70 % = ++++) | 
277 (FYTFPFQQL; listed as Homo sapiens) [compound 277] | +++ (50%-69% = +++) | 
349 (QYSIISNVF; listed as Homo sapiens) [compound 349] | ++ (20%-49% = ++) | 
414 (MYPYIYHVL; listed as Homo sapiens) [compound 414] |  | ++ (20%-49% = ++)
112 (IYNFVESKL; listed as Homo sapiens) [compound 112] | +++ (50%-69% = +++) | 
102 (VYPFENFEF; listed as Homo sapiens) [compound 102] | +++ (50%-69% = +++) | 
158 (IYEETRGVLKVF; listed as Homo sapiens) [compound 158] | + (<20% = +) | 
162 (KYTSYILAF; listed as Homo sapiens) [compound 162] | + (<20% = +) | 
106 (IYNETVRDLL; listed as Homo sapiens) [compound 106] | + (<20% = +) | 
179 (TYIPVGLGRLL; listed as Homo sapiens) [compound 179] | +++ (50%-69% = +++) | 
399 (SYIDVLPEF; listed as Homo sapiens) [compound 399] |  | ++ (20%-49% = ++)
407 (VYGIRLEHF; listed as Homo sapiens) [compound 407] |  | +++ (50%-69% = +++)
119 (VYRVYVTTF; listed as Homo sapiens) [compound 119] | +++ (50%-69% = +++) | 
367 (LYQDHMQYI; listed as Homo sapiens) [compound 367] | ++ (20%-49% = ++) | 
160 (RYGDGGSSF; listed as Homo sapiens) [compound 160] | + (<20% = +) | 
371 (AYSHLRYVF; listed as Homo sapiens) [compound 371] | ++ (20%-49% = ++) | 
366 (QYLELAHSL; listed as Homo sapiens) [compound 366] | ++ (20%-49% = ++) | 

Substance | Wells positive [%] | wells
400 (KYLEKYYNL; listed as Homo sapiens) [compound 400] |  | ++ (20%-49% = ++)
177 (VYFKAGLDVF; listed as Homo sapiens) [compound 177] | + (<20% = +) | 
353 (TYGKIDLGF; listed as Homo sapiens) [compound 353] | + (<20% = +) | 
142 (VYVDDIYVI; listed as Homo sapiens) [compound 142] | ++++ (>= 70 % = ++++) | 
122 (EYQARIPEF; listed as Homo sapiens) [compound 122] | ++ (20%-49% = ++) | 
354 (VYNEQIRDLL; listed as Homo sapiens) [compound 354] | + (<20% = +) | 
351 (IFHEVPLKF; listed as Homo sapiens) [compound 351] | ++ (20%-49% = ++) | 
105 (IYNETITDLL; listed as Homo sapiens) [compound 105] | + (<20% = +) | 
190 (LYSELTETL; listed as Homo sapiens) [compound 190] | ++++ (>= 70 % = ++++) | 
358 (YYSEVPVKL; listed as Homo sapiens) [compound 358] | ++++ (>= 70 % = ++++) | 
363 (SYAELGTTI; listed as Homo sapiens) [compound 363] | + (<20% = +) | 
111 (VYVQILQKL; listed as Homo sapiens) [compound 111] | + (<20% = +) | 
360 (VFSPDGHLF; listed as Homo sapiens) [compound 360] | ++ (20%-49% = ++) | 
175 (LYSPVPFTL; listed as Homo sapiens) [compound 175] | + (<20% = +) | 
344 (EYNSDLHQF; listed as Homo sapiens) [compound 344] | + (<20% = +) | 
181 (VYPPYLNYL; listed as Homo sapiens) [compound 181] | ++++ (>= 70 % = ++++) | 
171 (NYEDHFPLL; listed as Homo sapiens) [compound 171] | ++ (20%-49% = ++) | 
107 (KYFPYLVVI; listed as Homo sapiens) [compound 107] | ++ (20%-49% = ++) | 
161 (KYPDIVQQF; listed as Homo sapiens) [compound 161] | + (<20% = +) | 
157 (DYIPASGFALF; listed as Homo sapiens) [compound 157] | + (<20% = +) | 
393 (KYIEAIQWI; listed as Homo sapiens) [compound 393] |  | ++ (20%-49% = ++)
180 (KYLQVVGMF; listed as Homo sapiens) [compound 180] | + (<20% = +) | 
139 (IFGIFPNQF; listed as Homo sapiens) [compound 139] | ++ (20%-49% = ++) | 
